According to patent US20100298141A1, “SUBSTITUTED PYRIDINE N-OXIDE HERBICIDES” (E. I. DU PONT DE NEMOURS AND COMPANY, priority 2007, published 2010):

How the values were obtained:
[1] = tested on: winter barley; experiment: Test C postemergence test; format: in vivo, Hordeum vulgare; details: for Plant response rating, Barley: scale 0 to 100, 0 no effect, 100 complete control
Protocol: (§1) At the same time, plants selected from these crop and weed species and also winter barley (Hordeum vulgare), canarygrass (Phalaris minor), and chickweed (Stellaria media) were treated with postemergence applications of some of the test chemicals formulated in the same manner. Plants ranged in height from 2 to 18 cm (1- to 4-leaf stage) for postemergence treatments. […] At time of treatment, test pots were flooded to 3 cm above the soil surface, treated by application of test compounds directly to the paddy water, and then maintained at that water depth for the duration of the test. Treated plants and controls were maintained in a greenhouse for 13 to 15 days, after which time all species were compared to controls and visually evaluated. […] A dash (-) response means no test result.

[2] = tested on: chickweed; experiment: Test C postemergence test; format: in vivo, Stellaria media; details: for Plant response rating, Chickweed: scale 0 to 100, 0 no effect, 100 complete control
Protocol: as §1

[3] = tested on: green foxtail; experiment: Test F preemergence test; format: in vivo, Setaria viridis; details: scale 0 to 100
Excerpt: (§2) Seeds of plant species selected from bermudagrass (Cynodon dactylon), Surinam grass (Brachiaria decumbens), large crabgrass (Digitaria sanguinalis), green foxtail (Setaria viridis), goosegrass (Eleusine indica), johnsongrass (Sorghum halepense), kochia (Kochia scoparia), pitted morningglory (Ipomoea lacunosa), purple nutsedge (Cyperus rotundus), common ragweed (Ambrosia elation), mustard (Brassica nigra), guineagrass (Panicum maximum), […] (Paspalum dilatatum), barnyardgrass (Echinochloa crus-galli), southern sandbur (Cenchrus echinatus), common sowthistle (Sonchus oleraceous), prickly […] spinosa), Italian ryegrass (Lolium multiflorum), common purslane (Portulaca oleracea), broadleaf signalgrass (Brachiaria platyphylla), common groundsel (Senecio vulgaris), common chickweed (Stellaria media), Virginia dayflower (Commelina virginica), annual bluegrass (Poa annua), naked crabgrass (Digitaria nuda), […] cochinchinensis), quackgrass (Elytrigia repens), Canada horseweed (Conyza canadensis), field bindweed (Convolvulus arvensis), […] (Bidens bipinnata), common mallow (Malva sylvestris), Russian thistle (Salsola kali), and sugarcane (Saccharum officinarum) were planted and treated preemergence with test chemicals formulated in a non-phytotoxic solvent mixture which included a surfactant. At a different time, sugarcane was treated with postemergence applications of some of the test chemicals formulated in the same manner. Plants were approximately 3- to 4-leaf stage for the postemergence treatments. Treated plants and controls were maintained in a greenhouse for 14 to 21 days, after which time all species were compared to controls and visually evaluated. […] A dash (-) response means no test result.

[4] = tested on: johnsongrass; experiment: Test F preemergence test; format: in vivo, Sorghum halepense; details: scale 0 to 100
Excerpt: as §2

[5] = tested on: guineagrass; experiment: Test F preemergence test; format: in vivo, Panicum maximum; details: scale 0 to 100
Excerpt: as §2

[6] = tested on: dallisgrass; experiment: Test F preemergence test; format: in vivo, Paspalum dilatatum; details: scale 0 to 100
Excerpt: as §2

[7] = tested on: prickly sida; experiment: Test F preemergence test; format: in vivo, Sida spinosa; details: scale 0 to 100
Excerpt: as §2

[8] = tested on: common purslane; experiment: Test F preemergence test; format: in vivo, Portulaca oleracea; details: scale 0 to 100
Excerpt: as §2

[9] = tested on: common groundsel; experiment: Test F preemergence test; format: in vivo, Senecio vulgaris; details: scale 0 to 100
Excerpt: as §2

[10] = tested on: Virginia dayflower; experiment: Test F preemergence test; format: in vivo, Commelina virginica; details: scale 0 to 100
Excerpt: as §2

[11] = tested on: annual bluegrass; experiment: Test F preemergence test; format: in vivo, Poa annua; details: scale 0 to 100
Excerpt: as §2

[12] = tested on: naked crabgrass; experiment: Test F preemergence test; format: in vivo, Digitaria nuda; details: scale 0 to 100
Excerpt: as §2

[13] = tested on: itchgrass; experiment: Test F preemergence test; format: in vivo, Rottboellia cochinchinensis; details: scale 0 to 100
Excerpt: as §2

[14] = tested on: field bindweed; experiment: Test F preemergence test; format: in vivo, Convolvulus arvensis; details: scale 0 to 100
Excerpt: as §2

Cn1nc(C(F)(F)C(F)(F)F)c(C[S+]([O-])c2cccc[n+]2[O-])c1OCC(F)(F)F (stereo not shown) [Compound 79]
Plant response rating (0 to 100), Barley ([1]; 31 g ai/ha): 0
Plant response rating (0 to 100), Barley ([1]; 62 g ai/ha): 0
Plant response rating, Barley ([1]; 125 g ai/ha): 0
Plant response rating, Barley ([1]; 250 g ai/ha): 0
Plant response rating (0 to 100), Chickweed ([2]; 31 g ai/ha): 70
Plant response rating (0 to 100), Chickweed ([2]; 62 g ai/ha): 100
Plant response rating, Chickweed ([2]; 125 g ai/ha): 100
Plant response rating, Chickweed ([2]; 250 g ai/ha): 100
Plant response rating, Foxtail, Green ([3]; 16 g ai/ha, preemergence): 20
Foxtail, Green plant response rating ([3]; 62 g ai/ha, Preemergence): 90
Foxtail, Green plant response rating ([3]; 125 g ai/ha, preemergence): 100
Plant response rating, Foxtail, Green ([3]; Preemergence, 31 g ai/ha): 60
Plant response rating, Johnsongrass ([4]; 16 g ai/ha, preemergence): 0
Johnsongrass plant response rating ([4]; 62 g ai/ha, Preemergence): 90
Johnsongrass plant response rating ([4]; 125 g ai/ha, preemergence): 100
Plant response rating, Johnsongrass ([4]; Preemergence, 31 g ai/ha): 50
Plant response rating, Guineagrass ([5]; 16 g ai/ha, preemergence): 0
Guineagrass plant response rating ([5]; 62 g ai/ha, Preemergence): 100
Guineagrass plant response rating ([5]; 125 g ai/ha, preemergence): 100
Plant response rating, Guineagrass ([5]; Preemergence, 31 g ai/ha): 95
Plant response rating, Dallisgrass ([6]; 16 g ai/ha, preemergence): 0
Dallisgrass plant response rating ([6]; 62 g ai/ha, Preemergence): 90
Dallisgrass plant response rating ([6]; 125 g ai/ha, preemergence): 100
Plant response rating, Dallisgrass ([6]; Preemergence, 31 g ai/ha): 40
Plant response rating, Prickly Sida ([7]; 16 g ai/ha, preemergence): 0
Prickly Sida plant response rating ([7]; 62 g ai/ha, Preemergence): 100
Prickly Sida plant response rating ([7]; 125 g ai/ha, preemergence): 100
Plant response rating, Prickly Sida ([7]; Preemergence, 31 g ai/ha): 20
Plant response rating, Purslane ([8]; 16 g ai/ha, preemergence): 30
Purslane plant response rating ([8]; 62 g ai/ha, Preemergence): 60
Purslane plant response rating ([8]; 125 g ai/ha, preemergence): 100
Plant response rating, Purslane ([8]; Preemergence, 31 g ai/ha): 40
Plant response rating, Groundsel ([9]; 16 g ai/ha, preemergence): 95
Groundsel plant response rating ([9]; 62 g ai/ha, Preemergence): 95
Groundsel plant response rating ([9]; 125 g ai/ha, preemergence): 100
Plant response rating, Groundsel ([9]; Preemergence, 31 g ai/ha): 95
Dayflower plant response rating ([10]; 62 g ai/ha, Preemergence): 50
Dayflower plant response rating ([10]; 125 g ai/ha, preemergence): 100
Plant response rating, Dayflower ([10]; Preemergence, 31 g ai/ha): 20
Plant response rating, Bluegrass ([11]; 16 g ai/ha, preemergence): 0
Bluegrass plant response rating ([11]; 62 g ai/ha, Preemergence): 90
Bluegrass plant response rating ([11]; 125 g ai/ha, preemergence): 100
Plant response rating, Bluegrass ([11]; Preemergence, 31 g ai/ha): 0
Plant response rating, Crabgrass, Naked ([12]; 16 g ai/ha, preemergence): 0
Crabgrass, Naked plant response rating ([12]; 62 g ai/ha, Preemergence): 100
Crabgrass, Naked plant response rating ([12]; 125 g ai/ha, preemergence): 100
Plant response rating, Crabgrass, Naked ([12]; Preemergence, 31 g ai/ha): 40
Plant response rating, Itchgrass ([13]; 16 g ai/ha, preemergence): 0
Itchgrass plant response rating ([13]; 62 g ai/ha, Preemergence): 75
Itchgrass plant response rating ([13]; 125 g ai/ha, preemergence): 95
Plant response rating, Itchgrass ([13]; Preemergence, 31 g ai/ha): 75
Plant response rating, Field Bindweed ([14]; 16 g ai/ha, preemergence): 60
Field Bindweed plant response rating ([14]; 62 g ai/ha, Preemergence): 80
Field Bindweed plant response rating ([14]; 125 g ai/ha, preemergence): 95
Plant response rating, Field Bindweed ([14]; Preemergence, 31 g ai/ha): 70

CC(Oc1c(CS(=O)(=O)c2cccc[n+]2[O-])c(C(F)(F)F)nn1C)C(F)(F)F (stereo not shown) [Compound 82]
Plant response rating (0 to 100), Barley ([1]; 31 g ai/ha): 0
Plant response rating (0 to 100), Barley ([1]; 62 g ai/ha): 0
Plant response rating, Barley ([1]; 125 g ai/ha): 0
Plant response rating, Barley ([1]; 250 g ai/ha): 0
Plant response rating (0 to 100), Chickweed ([2]; 31 g ai/ha): 0
Plant response rating (0 to 100), Chickweed ([2]; 62 g ai/ha): 0
Plant response rating, Chickweed ([2]; 125 g ai/ha): 0
Plant response rating, Chickweed ([2]; 250 g ai/ha): 0
Plant response rating, Foxtail, Green ([3]; 16 g ai/ha, preemergence): 30
Foxtail, Green plant response rating ([3]; 125 g ai/ha, preemergence): 95
Plant response rating, Foxtail, Green ([3]; Preemergence, 62 g ai/ha): 95
Plant response rating, Foxtail, Green ([3]; Preemergence, 31 g ai/ha): 95
Johnsongrass plant response rating ([4]; 125 g ai/ha, preemergence): 100
Plant response rating, Johnsongrass ([4]; Preemergence, 62 g ai/ha): 100
Plant response rating, Johnsongrass ([4]; Preemergence, 31 g ai/ha): 35
Plant response rating, Guineagrass ([5]; 16 g ai/ha, preemergence): 70
Guineagrass plant response rating ([5]; 125 g ai/ha, preemergence): 100
Plant response rating, Guineagrass ([5]; Preemergence, 62 g ai/ha): 95
Plant response rating, Guineagrass ([5]; Preemergence, 31 g ai/ha): 70
Plant response rating, Dallisgrass ([6]; 16 g ai/ha, preemergence): 20
Dallisgrass plant response rating ([6]; 125 g ai/ha, preemergence): 90
Plant response rating, Dallisgrass ([6]; Preemergence, 62 g ai/ha): 40
Plant response rating, Dallisgrass ([6]; Preemergence, 31 g ai/ha): 20
Plant response rating, Prickly Sida ([7]; 16 g ai/ha, preemergence): 0
Prickly Sida plant response rating ([7]; 125 g ai/ha, preemergence): 75
Plant response rating, Prickly Sida ([7]; Preemergence, 62 g ai/ha): 15
Plant response rating, Prickly Sida ([7]; Preemergence, 31 g ai/ha): 0
Plant response rating, Purslane ([8]; 16 g ai/ha, preemergence): 0
Purslane plant response rating ([8]; 125 g ai/ha, preemergence): 35
Plant response rating, Purslane ([8]; Preemergence, 62 g ai/ha): 30
Plant response rating, Groundsel ([9]; 16 g ai/ha, preemergence): 0
Groundsel plant response rating ([9]; 125 g ai/ha, preemergence): 90
Plant response rating, Groundsel ([9]; Preemergence, 62 g ai/ha): 30
Plant response rating, Groundsel ([9]; Preemergence, 31 g ai/ha): 0
Dayflower plant response rating ([10]; 125 g ai/ha, preemergence): 100
Plant response rating, Dayflower ([10]; Preemergence, 62 g ai/ha): 90
Plant response rating, Bluegrass ([11]; 16 g ai/ha, preemergence): 0
Bluegrass plant response rating ([11]; 125 g ai/ha, preemergence): 100
Plant response rating, Bluegrass ([11]; Preemergence, 62 g ai/ha): 70
Plant response rating, Bluegrass ([11]; Preemergence, 31 g ai/ha): 60
Plant response rating, Crabgrass, Naked ([12]; 16 g ai/ha, preemergence): 35
Crabgrass, Naked plant response rating ([12]; 125 g ai/ha, preemergence): 100
Plant response rating, Crabgrass, Naked ([12]; Preemergence, 62 g ai/ha): 100
Plant response rating, Crabgrass, Naked ([12]; Preemergence, 31 g ai/ha): 98
Itchgrass plant response rating ([13]; 125 g ai/ha, preemergence): 70
Plant response rating, Itchgrass ([13]; Preemergence, 62 g ai/ha): 60
Plant response rating, Itchgrass ([13]; Preemergence, 31 g ai/ha): 0
Plant response rating, Field Bindweed ([14]; 16 g ai/ha, preemergence): 0
Field Bindweed plant response rating ([14]; 125 g ai/ha, preemergence): 0
Plant response rating, Field Bindweed ([14]; Preemergence, 62 g ai/ha): 0
Plant response rating, Field Bindweed ([14]; Preemergence, 31 g ai/ha): 0
